Peptide text beside a SMILES is read from it.

Results on one compound are retold here after patent US20250066423A1, “SESTRIN-MAPK COMPLEX INHIBITORS” (Sentcell Ltd, priority 2021, published 2025).

Test [1] has as its target T1, Sestrin 2 (Homo sapiens, UniProt P58004).
T1 sequence (P58004 1-480): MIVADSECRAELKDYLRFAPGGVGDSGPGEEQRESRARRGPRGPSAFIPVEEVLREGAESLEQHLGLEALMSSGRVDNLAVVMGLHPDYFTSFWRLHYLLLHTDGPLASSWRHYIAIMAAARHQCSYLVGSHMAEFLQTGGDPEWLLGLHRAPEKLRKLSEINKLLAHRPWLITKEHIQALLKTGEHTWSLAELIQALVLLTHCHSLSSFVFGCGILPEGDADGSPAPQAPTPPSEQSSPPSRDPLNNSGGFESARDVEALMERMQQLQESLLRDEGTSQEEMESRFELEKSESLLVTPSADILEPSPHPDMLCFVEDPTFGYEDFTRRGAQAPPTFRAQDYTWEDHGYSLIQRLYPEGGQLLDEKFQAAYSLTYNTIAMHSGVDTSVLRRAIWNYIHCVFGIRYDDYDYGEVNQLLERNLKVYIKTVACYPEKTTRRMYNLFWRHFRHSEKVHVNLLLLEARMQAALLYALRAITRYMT
The test is described as follows: Proteasomal degradation and ubiquitination of sestrin 2 (MG-132 pre-treatment, immunoprecipitation, immunoblot). Format: cell-based. Also noted: endogenous in cells; host or cells: primary CD4+ T cells from PBMCs of healthy donors. On the procedure:
(§1) FIG. 6 illustrates sMAC disruption by DOS46L. (A) CD4+ T cells were purified from PBMCs from healthy donors and treated with DOS46L (10 uM) for the indicated time points. The binding of AMPK to Sestrin 2 was quantified against the total level of Sestrin 2 immunoprecipitated and detected by ELISA. IgG immunoprecipitates served as background control. (B) Cells were pre-treated with proteasome-inhibitor MG-132 (10 uM) for 30 min and subsequently treated with DOS46L (10 uM) for 4 hours. Cells were harvested for immunoblot analysis or proceeded to immunoprecipitation. Levels of Sestrin 2, p38, and AMPK were evaluated by immunoblotting. H3 was used as a loading control. Representative images of 3 experiments are shown. (C) Immunoblot levels of Ubiquitin, Sestrin 2 and Histone 3 in Sestrin 2 immunoprecipitates and their lysates were analysed. Representative images are shown (top). The mean values (bottom) of ubiquitinated proteins in Sestrin 2 immunoprecipitates are shown. Results are presented as a mean±SD of 4 repeated experiments. Student's T-test was used to analyse the data. **p<0.01
(§2) • 1. Cell pellet was lysed with 100 μL of denaturing lysis buffer • 2. Then mixed well by vortexing vigorously for 2-3 sec at maximum speed. • 3. Samples were then boiled at 95° C. for 5 min. • 4. Samples were then diluted 900 μl of non-denaturing lysis buffer and mixed gently. • 5. […]

Test [2] addresses T2, sestrin-AMPK interaction (Homo sapiens, UniProt P58004).
T2 construct: endogenous in cells; host or cells: primary CD4+ T cells from PBMCs of healthy donors
T2 sequence (P58004 1-480): T1 sequence (P58004 1-480)
Nature of the test: ELISA coupled to sestrin 2 immunoprecipitation. Format: cell-based. How it is done:
as §1, §2

As to `CC[C@H](C)[C@@H]1NC(=O)[C@H](Cc2ccccc2)NC(=O)[C@H](C)NC(=O)[C@H](C(C)C)NC(=O)[C@@H]2CCCN2C1=O` [DOS46L] (cyclo(AFIPV)), the “inhibition of sestrin and AMPK after proteasome inhibitor pre-treatment” value in test [1] (MG-132 10 uM 30 min, then DOS46L 10 uM 4 hours) is “vanished”. For the same compound, in test [1] (T cells exposed to DOS46L 10 uM, 4 hours), the “ubiquitinated sestrin 2 immunoprecipitated” value is “increased amount”. The “binding of AMPK to Sestrin 2” value in test [2] (CD4+ T cells, 10 uM, 1 or 2 hours of treatment) was “decreased”. For the same compound, the sestrin-AMPK interaction result in test [2] (compound added directly to the sestrin immunoprecipitates in vitro) was “disrupted”.
